Measured values reported in patent US7893043B2, “2-methylene-(17Z)-17(20)-dehydro-19,21-dinor-vitamin D analogs” (Wisconsin Alumni Research Foundation, priority 2008, dated 2011).
Entries after “also recorded” stand apart in the source; their conditions may differ. Like-named read-outs stand apart in the source and are kept apart here.

Columns and labels:
[1] = tested on: intestinal calcium transport; experiment: Intestinal calcium transport, everted gut sac method; type: in vivo, rat; settings: for intestinal calcium transport: everted gut sac
Procedure: (§1) Male, weanling Sprague-Dawley rats were placed on Diet 11 (0.47% Ca) diet +AEK oil for one week followed by Diet 11 (0.02% Ca) +AEK oil for 3 weeks. The rats were then switched to a diet containing 0.47% Ca for one week followed by two weeks on a diet containing 0.02% Ca. Dose administration began during the last week on 0.02% calcium diet. Four consecutive ip doses were given approximately 24 hours apart. Twenty-four hours after the last dose, blood was collected from the severed neck and the concentration of serum calcium determined as a measure of bone calcium mobilization. The first 10 cm of the intestine was also collected for intestinal calcium transport analysis using the everted gut sac method.
Intestinal calcium transport was evaluated in the same groups of animals using the everted gut sac method (FIG. 5). […] Thus, it may be concluded that Vit II Z has essentially similar intestinal calcium transport activity at the recommended lower doses to that of 1,25(OH)2D3.

HL-60 cells = experiment: HL-60 differentiation (nitro blue tetrazolium reduction); type: cell-based, human; settings: differentiation of HL-60 cells into monocytes, FIG. 2, read-out: EC50, HL-60 cell differentiation
Procedure: The study drugs were dissolved in ethanol and the concentrations determined using UV spectrophotometry. Serial dilutions were prepared so that a range of drug concentrations could be tested without changing the final concentration of ethanol (≦0.2%) present in the cell cultures.
Human promyelocytic leukemia (HL60) cells were grown in RPMI-1640 medium containing 10% fetal bovine serum. The cells were incubated at 37° C. in the presence of 5% CO2.
HL60 cells were plated at 1.2×10^5 cells/ml. Eighteen hours after plating, cells in duplicate were treated with drug. Four days later, the cells were harvested and a nitro blue tetrazolium reduction assay was performed (Collins et al., 1979; J. Exp. Med. 149:969-974). The percentage of differentiated cells was determined by counting a total of 200 cells and recording the number that contained intracellular black-blue formazan deposits. Verification of differentiation to monocytic cells was determined by measuring phagocytic activity (data not shown).

[2] = tested on: bone calcium mobilization; experiment: Bone calcium mobilization (serum calcium) in vitamin D-deficient rats; type: in vivo, rat
Procedure: as §1
Calcium mobilization from bone and intestinal calcium absorption in vitamin D-deficient animals. Using vitamin D-deficient rats on a low calcium diet (0.02%), the activities of Vit II Z and 1,25(OH)2D3 in intestine and bone were tested. As expected, the native hormone (1,25(OH)2D3) increased serum calcium levels at all dosages (FIG. 4).

[3] = tested on: 24-hydroxylase (24Ohase) gene promoter; experiment: In vitro transcription assay (24-hydroxylase promoter luciferase reporter in ROS 17/2.8 bone cells); type: cell-based; settings: ROS 17/2.8 cells, FIG. 3, read-out: EC50, transcriptional activity in bone cells
Procedure: Transcription activity was measured in ROS 17/2.8 (bone) cells that were stably transfected with a 24-hydroxylase (24Ohase) gene promoter upstream of a luciferase reporter gene (Arbour et al., 1998). Cells were given a range of doses. Sixteen hours after dosing the cells were harvested and luciferase activities were measured using a luminometer.
RLU=relative luciferase units.

[4] = target: T1, full-length recombinant rat vitamin D receptor (Rattus norvegicus, UniProt P13053); experiment: Vitamin D receptor binding, competition with [3H]-1,25(OH)2D3; settings: FIG. 1
T1 construct: Full-length recombinant rat receptor was expressed in E. coli BL21 (DE3) Codon Plus RIL cells; histidine tag (C); made in house; host or cells: E. coli BL21 (DE3) Codon Plus RIL
T1 sequence (P13053 1-423): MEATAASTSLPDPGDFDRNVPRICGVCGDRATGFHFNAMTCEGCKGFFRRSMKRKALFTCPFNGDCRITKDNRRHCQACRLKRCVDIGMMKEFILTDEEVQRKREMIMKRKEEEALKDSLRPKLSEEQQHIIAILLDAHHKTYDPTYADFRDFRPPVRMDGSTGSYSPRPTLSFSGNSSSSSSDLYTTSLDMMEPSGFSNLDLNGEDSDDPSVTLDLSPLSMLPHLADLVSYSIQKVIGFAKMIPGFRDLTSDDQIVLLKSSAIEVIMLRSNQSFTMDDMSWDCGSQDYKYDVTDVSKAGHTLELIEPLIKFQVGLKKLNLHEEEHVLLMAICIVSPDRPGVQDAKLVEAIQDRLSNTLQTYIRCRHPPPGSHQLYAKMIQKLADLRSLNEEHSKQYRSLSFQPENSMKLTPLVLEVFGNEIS
Procedure: Full-length recombinant rat receptor was expressed in E. coli BL21 (DE3) Codon Plus RIL cells and purified to homogeneity using two different column chromatography systems. The first system was a nickel affinity resin that utilizes the C-terminal histidine tag on this protein. The protein that was eluted from this resin was further purified using ion exchange chromatography (S-Sepharose Fast Flow). Aliquots of the purified protein were quick frozen in liquid nitrogen and stored at −80° C. until use. For use in binding assays, the protein was diluted in TEDK50 (50 mM Tris, 1.5 mM EDTA, pH7.4, 5 mM DTT, 150 mM KCl) with 0.1% Chaps detergent. The receptor protein and ligand concentration were optimized such that no more than 20% of the added radiolabeled ligand was bound to the receptor.
Radiolabeled and unlabeled ligands were added to 100 mcl of the diluted protein at a final ethanol concentration of ≦10%, mixed and incubated overnight on ice to reach binding equilibrium. The following day, 100 mcl of hydroxylapatite slurry (50%) was added to each tube and mixed at 10-minute intervals for 30 minutes. […] After the final wash, the pellets were transferred to scintillation vials containing 4 ml of Biosafe II scintillation cocktail, mixed and placed in a scintillation counter. Total binding was determined from the tubes containing only radiolabeled ligand.

Structure (SMILES) | intestinal calcium transport ([1]; 29 pmol/day) | intestinal calcium transport ([1]; 2340 pmol/day) | intestinal calcium transport activity compared to 1,25(OH)2D3 ([1]; vitamin D-deficient rats, ip, FIG. 5) | EC50 (HL-60 cells; Homo sapiens) [nM] | bone calcium mobilization activity compared to 1,25(OH)2D3 ([2]; 87 pmol/day and 780 pmol/day for 4 consecutive days, rats on 0.02% Ca diet) | bone calcium mobilization, effect of increasing the dose ([2]; 2340 pmol/day, rats on 0.02% Ca diet) | bone calcium mobilization activity compared to 1,25(OH)2D3 ([2]; vitamin D-deficient rats, ip, FIG. 4) | EC50 [3] [nM] | VDR binding affinity compared to 1,25-(OH)2D3 [4] | Ki ([4]; full-length recombinant rat VDR) [nM] | intestinal calcium transport ([1]; at the tested doses) | EC50 (HL-60 cells) [nM] | serum calcium levels ([2]; all dosages, rats on 0.02% Ca diet, FIG. 4)
C=C1[C@H](O)CC(=C/C=C2\CCC[C@]3(C)/C(=C\CCCC(C)(C)O)CC[C@@H]23)C[C@H]1O [Vit II Z, 2-methylene-(17Z)-17(20)-dehydro-19,21-dinor-1α,25-dihydroxyvitamin D3] | promotes intestinal calcium transport | very significant intestinal calcium transport activity | about the same or equal activity; also recorded: about the same as or equal to | 0.08 | about the same as or equal to | without any substantial additional effect | about the same or equal bone calcium mobilization activity | 0.03 | nearly the same affinity | 0.2 | – | – | –
C=C1/C(=C\C=C2/CCC[C@]3(C)[C@@H]([C@H](C)CCCC(C)(C)O)CC[C@@H]23)C[C@@H](O)C[C@@H]1O [1α,25-dihydroxyvitamin D3, reference compound] | – | – | – | – | – | – | – | 0.2 | – | – | significant increase | 2 | increased
